What all share (test): KinomeScan kinase panel, single concentration 10 µM
Holding throughout (format): binding

The target of test [1] is T1, KinomeScan kinase panel (Homo sapiens, UniProt Q8NFD2).
T1 construct: purchased DiscoveRx (KinomeScan)
T1 sequence (Q8NFD2 1-765): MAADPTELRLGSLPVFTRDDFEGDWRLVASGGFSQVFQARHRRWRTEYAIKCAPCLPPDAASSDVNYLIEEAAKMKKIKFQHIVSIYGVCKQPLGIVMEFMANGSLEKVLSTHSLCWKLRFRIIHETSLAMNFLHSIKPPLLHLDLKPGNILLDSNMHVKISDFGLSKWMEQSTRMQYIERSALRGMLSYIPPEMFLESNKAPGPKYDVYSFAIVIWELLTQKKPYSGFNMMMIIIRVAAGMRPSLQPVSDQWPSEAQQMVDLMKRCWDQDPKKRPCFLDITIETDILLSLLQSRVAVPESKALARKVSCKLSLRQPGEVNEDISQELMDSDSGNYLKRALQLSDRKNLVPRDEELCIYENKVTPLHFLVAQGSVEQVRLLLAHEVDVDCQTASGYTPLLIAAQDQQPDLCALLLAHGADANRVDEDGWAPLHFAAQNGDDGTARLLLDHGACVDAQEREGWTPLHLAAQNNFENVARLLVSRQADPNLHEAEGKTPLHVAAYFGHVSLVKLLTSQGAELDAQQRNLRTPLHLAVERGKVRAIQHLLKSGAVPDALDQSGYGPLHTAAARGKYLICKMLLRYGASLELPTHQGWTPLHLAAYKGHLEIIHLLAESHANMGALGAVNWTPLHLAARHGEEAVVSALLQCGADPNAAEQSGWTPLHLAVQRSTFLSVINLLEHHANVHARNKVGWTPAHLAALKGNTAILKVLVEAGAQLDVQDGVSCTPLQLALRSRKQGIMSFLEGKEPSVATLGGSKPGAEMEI
The settings on record: ANKK1, 10 µM; read-out: score (%).

For test [2], the target named is T2, KinomeScan kinase panel (Homo sapiens, UniProt Q99755).
T2 construct: purchased DiscoveRx (KinomeScan)
The settings on record: PIP5K1A, 10 µM; read-out: score (%).

In test [3] the target is T3, KinomeScan kinase panel (Homo sapiens, UniProt Q8TDR2).
T3 construct: purchased DiscoveRx (KinomeScan)
The settings on record: read-out: score (%).

For test [4], the target named is T4, KinomeScan kinase panel (Homo sapiens, UniProt P49761).
T4 construct: purchased DiscoveRx (KinomeScan)
The settings on record: CLK3, 10 µM; read-out: score (%).

Test [5] deals with T5, KinomeScan kinase panel (Homo sapiens, UniProt Q92772).
T5 construct: purchased DiscoveRx (KinomeScan)
T5 sequence (Q92772 1-493): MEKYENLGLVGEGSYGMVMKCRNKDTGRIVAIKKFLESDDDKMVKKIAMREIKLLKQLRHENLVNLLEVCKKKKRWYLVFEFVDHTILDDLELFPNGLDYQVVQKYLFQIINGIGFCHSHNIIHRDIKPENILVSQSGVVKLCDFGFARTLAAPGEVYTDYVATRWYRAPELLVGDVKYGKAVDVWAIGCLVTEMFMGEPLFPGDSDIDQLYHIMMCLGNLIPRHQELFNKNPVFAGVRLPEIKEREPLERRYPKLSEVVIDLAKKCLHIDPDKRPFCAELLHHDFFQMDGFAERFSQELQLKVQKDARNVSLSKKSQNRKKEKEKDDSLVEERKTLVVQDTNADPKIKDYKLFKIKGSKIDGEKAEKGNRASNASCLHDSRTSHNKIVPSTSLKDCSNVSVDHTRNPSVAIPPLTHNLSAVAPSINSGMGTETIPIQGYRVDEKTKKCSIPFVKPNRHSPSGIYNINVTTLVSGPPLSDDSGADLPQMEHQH
The settings on record: CDKL2, 10 µM; read-out: score (%).

For test [6], the target named is T6, KinomeScan kinase panel (Homo sapiens, UniProt O00329).
T6 construct: purchased DiscoveRx (KinomeScan)
T6 sequence (O00329 1-1044): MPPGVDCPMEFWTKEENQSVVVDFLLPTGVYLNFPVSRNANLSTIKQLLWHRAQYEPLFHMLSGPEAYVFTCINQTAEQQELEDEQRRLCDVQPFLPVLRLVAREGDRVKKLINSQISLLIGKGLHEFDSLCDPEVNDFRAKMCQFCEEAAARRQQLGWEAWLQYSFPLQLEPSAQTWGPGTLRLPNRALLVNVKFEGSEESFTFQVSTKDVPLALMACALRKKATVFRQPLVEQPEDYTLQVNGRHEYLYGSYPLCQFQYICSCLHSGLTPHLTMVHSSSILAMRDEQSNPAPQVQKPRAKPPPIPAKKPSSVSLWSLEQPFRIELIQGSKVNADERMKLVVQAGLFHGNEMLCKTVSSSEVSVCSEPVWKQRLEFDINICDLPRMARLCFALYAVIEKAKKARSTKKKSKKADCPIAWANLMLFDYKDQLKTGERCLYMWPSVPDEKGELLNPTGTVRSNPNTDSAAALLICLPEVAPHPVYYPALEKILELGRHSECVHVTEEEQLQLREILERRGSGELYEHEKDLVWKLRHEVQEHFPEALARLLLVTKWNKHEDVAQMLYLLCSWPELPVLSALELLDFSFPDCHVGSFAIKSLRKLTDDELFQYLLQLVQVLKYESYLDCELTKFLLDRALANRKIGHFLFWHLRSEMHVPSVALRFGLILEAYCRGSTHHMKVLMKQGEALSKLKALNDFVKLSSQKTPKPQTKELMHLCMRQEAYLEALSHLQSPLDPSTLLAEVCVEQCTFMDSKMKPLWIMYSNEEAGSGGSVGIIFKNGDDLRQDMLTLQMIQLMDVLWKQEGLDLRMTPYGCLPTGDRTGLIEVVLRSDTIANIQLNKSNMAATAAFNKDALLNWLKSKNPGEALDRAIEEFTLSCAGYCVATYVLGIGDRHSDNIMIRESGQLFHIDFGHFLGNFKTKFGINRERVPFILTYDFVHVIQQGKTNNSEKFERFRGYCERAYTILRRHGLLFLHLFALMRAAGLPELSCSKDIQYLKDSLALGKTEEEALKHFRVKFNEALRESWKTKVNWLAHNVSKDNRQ
The settings on record: PIK3CD, 10 µM; read-out: score (%).

The target of test [7] is T7, KinomeScan kinase panel (Homo sapiens, UniProt Q9BWU1).
T7 construct: purchased DiscoveRx (KinomeScan)
The settings on record: CDK11, 10 µM.

For test [8], the target named is T8, KinomeScan kinase panel (Homo sapiens, UniProt P22694).
T8 construct: purchased DiscoveRx (KinomeScan)
The settings on record: PKAC-beta, 10 µM; read-out: score (%).

Test [9] deals with T9, KinomeScan kinase panel (Homo sapiens, UniProt P09619).
T9 construct: purchased DiscoveRx (KinomeScan)
The settings on record: PDGFRB, 10 µM; read-out: score (%).

The target in test [10] is T10, KinomeScan kinase panel (Homo sapiens, UniProt Q14680).
T10 construct: purchased DiscoveRx (KinomeScan)
The settings on record: MELK, 10 µM; read-out: score (%).

Where two headings read alike, the source gives them in different places.

T3 sequence (Q8TDR2 whole entry): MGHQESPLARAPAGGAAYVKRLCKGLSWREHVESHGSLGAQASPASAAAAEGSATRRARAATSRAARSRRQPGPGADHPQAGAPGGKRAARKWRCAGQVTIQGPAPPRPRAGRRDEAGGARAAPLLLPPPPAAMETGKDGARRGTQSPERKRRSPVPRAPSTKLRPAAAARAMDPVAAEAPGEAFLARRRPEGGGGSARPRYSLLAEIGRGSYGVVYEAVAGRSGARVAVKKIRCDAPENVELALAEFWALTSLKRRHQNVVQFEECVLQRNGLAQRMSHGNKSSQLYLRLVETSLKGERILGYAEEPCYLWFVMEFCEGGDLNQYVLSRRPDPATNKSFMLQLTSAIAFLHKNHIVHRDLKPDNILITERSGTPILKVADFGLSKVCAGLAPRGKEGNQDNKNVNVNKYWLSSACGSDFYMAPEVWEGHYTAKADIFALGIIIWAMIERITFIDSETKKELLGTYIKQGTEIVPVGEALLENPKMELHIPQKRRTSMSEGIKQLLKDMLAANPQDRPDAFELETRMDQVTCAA
T4 sequence (P49761 whole entry): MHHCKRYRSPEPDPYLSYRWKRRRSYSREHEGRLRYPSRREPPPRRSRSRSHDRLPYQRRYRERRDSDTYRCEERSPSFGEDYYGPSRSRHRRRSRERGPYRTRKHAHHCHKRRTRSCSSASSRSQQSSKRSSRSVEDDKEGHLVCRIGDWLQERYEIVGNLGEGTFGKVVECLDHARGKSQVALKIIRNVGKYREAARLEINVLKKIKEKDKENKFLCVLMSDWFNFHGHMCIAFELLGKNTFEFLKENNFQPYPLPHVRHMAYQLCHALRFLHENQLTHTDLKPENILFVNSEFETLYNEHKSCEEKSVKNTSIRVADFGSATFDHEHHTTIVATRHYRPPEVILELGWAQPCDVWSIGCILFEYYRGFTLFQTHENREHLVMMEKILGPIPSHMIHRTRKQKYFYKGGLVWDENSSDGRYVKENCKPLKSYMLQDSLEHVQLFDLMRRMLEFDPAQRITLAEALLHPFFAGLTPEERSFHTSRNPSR
T2 sequence (Q99755 whole entry): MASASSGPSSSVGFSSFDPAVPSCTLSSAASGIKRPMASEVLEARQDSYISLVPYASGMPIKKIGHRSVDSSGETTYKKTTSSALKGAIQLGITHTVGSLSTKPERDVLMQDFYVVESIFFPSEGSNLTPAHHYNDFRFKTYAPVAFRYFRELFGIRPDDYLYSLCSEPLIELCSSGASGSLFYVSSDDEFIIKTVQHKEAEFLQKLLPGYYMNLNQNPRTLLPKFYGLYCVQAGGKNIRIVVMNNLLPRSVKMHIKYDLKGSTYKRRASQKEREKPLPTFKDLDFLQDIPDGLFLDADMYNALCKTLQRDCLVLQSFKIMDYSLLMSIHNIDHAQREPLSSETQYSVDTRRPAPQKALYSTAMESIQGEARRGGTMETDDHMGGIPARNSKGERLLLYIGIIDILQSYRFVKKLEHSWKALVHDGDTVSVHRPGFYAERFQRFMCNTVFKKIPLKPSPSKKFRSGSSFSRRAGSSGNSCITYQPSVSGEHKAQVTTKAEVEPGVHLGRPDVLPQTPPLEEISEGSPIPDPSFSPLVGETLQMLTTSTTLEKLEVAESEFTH
T10 sequence (Q14680 whole entry): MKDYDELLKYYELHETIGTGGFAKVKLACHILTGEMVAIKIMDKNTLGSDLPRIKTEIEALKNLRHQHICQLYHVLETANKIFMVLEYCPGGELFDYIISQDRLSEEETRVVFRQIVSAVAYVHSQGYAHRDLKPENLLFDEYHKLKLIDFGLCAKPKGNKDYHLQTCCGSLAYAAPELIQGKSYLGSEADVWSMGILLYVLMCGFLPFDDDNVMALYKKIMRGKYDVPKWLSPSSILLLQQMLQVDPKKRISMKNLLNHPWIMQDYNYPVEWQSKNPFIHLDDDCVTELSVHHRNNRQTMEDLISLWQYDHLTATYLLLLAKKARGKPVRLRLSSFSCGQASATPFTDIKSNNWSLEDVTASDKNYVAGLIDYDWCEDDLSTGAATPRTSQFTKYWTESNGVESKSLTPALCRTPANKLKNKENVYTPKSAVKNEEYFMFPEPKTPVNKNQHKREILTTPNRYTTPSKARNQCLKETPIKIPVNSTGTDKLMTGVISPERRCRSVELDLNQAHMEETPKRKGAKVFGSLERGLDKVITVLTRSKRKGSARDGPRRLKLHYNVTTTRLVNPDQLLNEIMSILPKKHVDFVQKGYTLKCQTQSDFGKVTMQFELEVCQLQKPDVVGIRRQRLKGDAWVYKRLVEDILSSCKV
T7 sequence (Q9BWU1 whole entry): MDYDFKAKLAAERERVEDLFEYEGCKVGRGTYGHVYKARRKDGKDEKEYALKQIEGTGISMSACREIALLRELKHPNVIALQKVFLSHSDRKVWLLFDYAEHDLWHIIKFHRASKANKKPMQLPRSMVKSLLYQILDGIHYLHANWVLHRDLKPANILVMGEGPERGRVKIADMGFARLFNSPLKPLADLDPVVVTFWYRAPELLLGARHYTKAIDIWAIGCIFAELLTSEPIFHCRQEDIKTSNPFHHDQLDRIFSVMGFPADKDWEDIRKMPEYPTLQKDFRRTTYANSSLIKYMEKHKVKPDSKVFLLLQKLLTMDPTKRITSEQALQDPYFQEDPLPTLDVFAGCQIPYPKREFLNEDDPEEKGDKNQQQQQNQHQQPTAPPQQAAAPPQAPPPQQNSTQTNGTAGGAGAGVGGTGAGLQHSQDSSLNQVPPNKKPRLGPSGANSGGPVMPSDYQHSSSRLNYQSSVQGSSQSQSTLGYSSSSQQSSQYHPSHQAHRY
T9 sequence (P09619 33-1106): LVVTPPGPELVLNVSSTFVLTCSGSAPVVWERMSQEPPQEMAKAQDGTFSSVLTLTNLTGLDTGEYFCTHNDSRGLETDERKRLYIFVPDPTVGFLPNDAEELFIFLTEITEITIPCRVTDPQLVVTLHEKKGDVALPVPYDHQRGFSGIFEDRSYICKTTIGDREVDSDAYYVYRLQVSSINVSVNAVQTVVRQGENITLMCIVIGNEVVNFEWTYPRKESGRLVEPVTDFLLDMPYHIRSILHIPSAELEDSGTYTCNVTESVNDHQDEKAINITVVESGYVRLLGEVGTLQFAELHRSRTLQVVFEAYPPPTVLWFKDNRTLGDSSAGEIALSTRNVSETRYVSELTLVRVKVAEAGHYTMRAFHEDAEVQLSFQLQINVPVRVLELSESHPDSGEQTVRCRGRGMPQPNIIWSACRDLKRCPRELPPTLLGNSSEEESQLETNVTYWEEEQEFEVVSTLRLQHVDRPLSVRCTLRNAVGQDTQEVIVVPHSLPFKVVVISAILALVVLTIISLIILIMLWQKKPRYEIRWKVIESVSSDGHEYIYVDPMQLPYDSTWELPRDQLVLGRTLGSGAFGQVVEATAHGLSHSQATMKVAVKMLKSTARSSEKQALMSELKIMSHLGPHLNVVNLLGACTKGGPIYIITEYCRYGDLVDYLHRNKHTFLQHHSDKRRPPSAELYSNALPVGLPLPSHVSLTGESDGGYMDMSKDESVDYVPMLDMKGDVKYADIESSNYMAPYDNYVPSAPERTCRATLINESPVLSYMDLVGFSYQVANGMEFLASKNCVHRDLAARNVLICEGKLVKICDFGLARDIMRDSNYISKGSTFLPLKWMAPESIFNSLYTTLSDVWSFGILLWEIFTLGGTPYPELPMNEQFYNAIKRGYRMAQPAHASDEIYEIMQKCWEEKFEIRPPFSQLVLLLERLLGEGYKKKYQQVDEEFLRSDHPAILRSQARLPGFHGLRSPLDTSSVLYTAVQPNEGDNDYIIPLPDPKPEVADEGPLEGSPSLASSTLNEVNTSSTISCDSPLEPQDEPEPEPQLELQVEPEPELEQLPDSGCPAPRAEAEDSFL

With `CCN1CCN(Cc2ccc(NC(=O)c3ccc(C)c(NC(=O)c4cncc(-c5cccs5)c4)c3)cc2C(F)(F)F)CC1` [ALW-II-41-27], the remaining binding at 10 µM is 1.4% in [1]; over 30% in test [2]; 21% in test [3] (kinase STK35, 10 µM); over 30% in test [4]; 9.1% in test [5]; over 30% in [6]. In addition, the figures for the remaining binding at 10 µM in test [8], in test [9] and in test [10] were 8%, 0% and over 30%, respectively. In test [7], the “score (%)” value is recorded as 3.8%.
In the case of `CCN1CCN(Cc2ccc(NC(=O)c3ccc(C)c(/C=C/c4cnc5[nH]ccc5c4Cl)c3)cc2C(F)(F)F)CC1` [HG-6-63-01, (E)-3-(2-(4-chloro-1H-pyrrolo[2,3-b]pyridin-5-yl)vinyl)-N-(4-((4-ethylpiperazin-1-yl)methyl)-3-(trifluoromethyl)phenyl)-4-methylbenzamide], the remaining binding at 10 µM in test [1] was 0.4%; in [2], 15%; in [3] (STK35, 10 µM) it was over 30%; in test [4], over 30%; in test [5], 0.5%; in test [6], over 30%. The remaining binding at 10 µM in test [8] was over 30%; in test [9], 0%; in test [10], 22%. For the same compound, the “score (%)” value in [7] was found to be 3%.
Regarding `CCN1CCN(Cc2ccc(NC(=O)c3ccc(C)c(C#Cc4cccnc4)c3)cc2C(F)(F)F)CC1` [XMD15-44], the remaining binding at 10 µM was 8.2% in test [1]; 79% in [2]; 1.6% in test [3] (kinase STK35, 10 µM); over 30% in test [4]; 1.4% in [5]; 76% in [6]. Moreover, the remaining binding at 10 µM was 4.1% in [8], 0% in test [9] and 8.1% in [10]. Besides, the “score (%)” value in [7] is 5%.
